Assay results published in patent publication US11098003B2, “Control and repellency of bed bugs” (BEDOUKIAN RESEARCH, INC., priority 2012, dated 2021).

Test system: bed bugs
Test: Petri dish choice test, treated vs. untreated paper discs: repellency (avoidance) of bed bugs
Format: in vivo, Cimex species
Conditions: 1 ml acetone solution on paper disc, distribution at 2 hours post-treatment, 5 replicates of 10 bed bugs
Description: Two semicircle discs of paper, one treated (1 ml of acetone solution of each compound was applied to each disc) and one untreated (1 ml of acetone only), were placed in the lid of a Petri dish. […] Five replicates of 10 bed bugs were released into the centers of the lids and were thus presented with a choice of treated vs. untreated substrate (or untreated vs. untreated in the control arenas). The distribution of the bed bugs was recorded at 2 hours post-treatment. Paired t-tests were conducted for each treatment to ascertain whether or not there was a statistically significant difference in the numbers of bed bugs on the treated vs. untreated discs.

| Compound | Repellency/Avoidance (0.2% compound) [%] | other results |
| --- | --- | --- |
| CCN(CC)C(=O)c1cccc(C)c1 [DEET, N,N-Diethyl-m-toluamide, reference compound] | 74 | Repellency/Avoidance (0.09% compound): 66% |
| CCCCCC1C(=O)CCC1CC(=O)O (stereo not shown) [Dihydrojasmonic Acid] | 78 | – |
| CCCCCC1C(O)CCC1CC(=O)OC (stereo not shown) [Methyl dihydrojasmolate] | 82 | Repellency/Avoidance (0.15% compound): 58% |
| CCCCCC1C(CC(=O)OC)CCC1(OC)OC (stereo not shown) [Methyl dihydrojasmonate dimethyl acetal] | 90 | – |
| CC1CCC(C(C)(C)O)C(O)C1 (stereo not shown) [Para Menthane-3,8-diol (PMD), Para Menthane-3,8-diol, reference compound] | 70 | Repellency/Avoidance (0.15% compound): 42% |
| CCCCCC1C(O)CCC1CC(=O)OCC=C(C)C (stereo not shown) [Prenyl dihydrojasmolate] | 48 | – |
| CCCCCCCCCC1(C)CCC(=O)O1 (stereo not shown) [gamma Methyl tridecalactone] | 72 | – |
| CCCCCCCCC1CCC(=O)O1 (stereo not shown) [gamma-Dodecalactone] | 82 | – |
| CCCCCCCCCCCCCC1CCC(=O)O1 (stereo not shown) [gamma-Heptadecalactone] | – | Repellency/Avoidance (2% compound): 68% |
| CCCCCCCCCCCC1CCC(=O)O1 (stereo not shown) [gamma-Pentadecalactone] | – | Repellency/Avoidance (1% compound): 92% |
| CCCCCCCCCC1CCC(=O)O1 (stereo not shown) [gamma-Tridecalactone] | – | Repellency/Avoidance (0.5% compound): 86%; Repellency/Avoidance (1% compound): 96% |
| Dihydrojasmolactone | 84 | – |
| Methyl apritol | 88 | Repellency/Avoidance (0.15% compound): 74% |
| Methyl dihydrojasmonate amide | – | Repellency/Avoidance (concentration not given): 28% |
